± gives the expanded uncertainty stated by the source.
Tests used:
[1] = Crystal; DTA
[2] = Molar enthalpy of transition or fusion; conditions: Crystal; DSC

CCCCCCCCCCCC(=O)O [dodecanoic acid]
Normal melting temperature [1]: 43.00 ± 0.53 °C
Molar enthalpy of transition or fusion [2]: 8.48 ± 0.382 kcal/mol

CCCCCCCCCCCCCCCCCC [octadecane]
Normal melting temperature [1]: 27.80 ± 0.53 °C
Molar enthalpy of transition or fusion [2]: 14.7 ± 0.645 kcal/mol

CCCCCCCCCC(=O)O [decanoic acid]
Normal melting temperature [1]: 31.10 ± 0.53 °C
Molar enthalpy of transition or fusion [2]: 6.51 ± 0.287 kcal/mol
